Like-named read-outs stand apart in the source and are kept apart here.
Experiments:
[1] = system: cerebral blood flow (CBF) response; experiment: Cerebral blood flow responses by laser-Doppler flowmetry
Method: (§1) Animals were sacrificed at 3 days post DT or vehicle treatment (FIG. 3A) or 15 days post DT or vehicle treatment (FIG. 4A) as indicated, and brains were collected and analyzed.
Animals were initially anesthetized with 100 mg/kg of ketamine and 50 mg/kg of xylazine and were placed on a heating pad (37° C.). The cranium of the mouse was firmly secured in a stereotaxic frame. A high speed dental drill (tip FST 19007-05, Fine Science Tools Inc., Foster City, Calif.) was used to thin a square cranial window about 2×2 mm over the parietal cortex, and 45 degree forceps were used to remove the square piece of skull. Gelfoam (Pharmacia & Upjohn Company, Kalamazoo, Mass.) was applied immediately to control any cranial or dural bleeding. A sterile 5 mm glass cover slip was then placed on the dura mater and sealed with a 1:1 mixture of bone cement and cyanoacrylate based glue.
CBF responses to hindlimb stimulation in anesthetized mice (˜1% isoflurane) were determined using laser-Doppler flowmetry as previously described. The tip of the laser-Doppler probe (Transonic Systems Inc., Ithaca, N.Y.) was stereotaxically placed 0.5 mm above the cranial window over the hindlimb region of the primary somatosensory cortical area. CBF was recorded following electrical stimulation of the hind-limb using a 60 s long stimulus (7 Hz, 2 ms pulse duration). The percentage increase in CBF due to stimulation was obtained by subtracting the baseline CBF from the stable maximum plateau value reached during stimulus, and averaged over three trials per mouse. For CBF response to drug application, the LDF probe was placed stereotaxically over the center of an open cranial window (center at AP=−0.94 mm, L=1.5 mm). Drugs (10 μM Acetylcholine, and 400 μM Adenosine, all from Sigma) were superfused individually over the window, and responses recorded, as the Inventors reported previously. Arterial blood pressure was monitored continuously during the experiment. pH and blood gases were monitored before and after CBF recordings.

hippocampal function = experiment: Behavioral tests: novel object location and contextual fear conditioning; type: in vivo, mouse
Method: Novel object location test was performed as the Inventors have previously reported. Animals were placed in a […] and allowed to habituate to the testing area for 10 min. Animals were then placed back in their cages and 2 identical approximately 5×5 cm objects were placed in the top left and right corner of the testing area. Animals were allowed to explore the two objects in the testing area for 5 min before being returned to their cages. After an hour interval one of the objects was relocated and the animals were allowed to explore the testing area once again for 3 min. After each trial, the testing area and the objects were thoroughly cleaned with 70% ethanol solution. All the trials, including habituation, were recorded with a high resolution camera and the amount of time each animal spent exploring the objects was analyzed. Any animals that presented a preference for either of the two identical objects, before replacement with the novel location, were eliminated from the analysis. Both male and female animals were used in the study.
Long-term memory formation paradigm in contextual fear conditioning was adapted from a previously described protocol with modifications. The experiment was performed using conditioning chamber made of plexiglas housed in a soundproof isolation cubicle and equipped with a stainless-steel grid floor connected to a solid-state shock scrambler. The scrambler was connected to an electronic constant-current shock source that was controlled via an interface connected to a computer running FreezeFrame software (Coulbourn Instruments, Allentown, Pa., USA). A digital camera was mounted on the steel ceiling and behavior was recorded. […] Hippocampus-dependent fear memory formation was evaluated by scoring freezing behavior (the absence of all movement except for respiration). Percentage of total freezing time was assessed using the automated FreezeFrame system with a threshold set at 10%. […]

neurons = experiment: NeuN-positive neuron numbers and SMI-312 neuritic density
Method: as §1
Animals were anesthetized with an i.p. injection of 100 mg/kg of ketamine and 50 mg/kg of 10 xylazine, and transcardially perfused first with 15 ml saline, followed by 20 ml of 4% paraformaldehyde (PFA) in PBS. Brains were removed, and post-fixed overnight at 4° C. before brain sections were cut at 30 μm thickness. Sections were blocked with 5% normal donkey serum (Vector Laboratories)/0.1% Triton-X/0.01M PBS and incubated with primary antibody diluted in blocking solution overnight at 4° C. […] Sections were imaged with a Zeiss LSM 510 confocal laser-scanning microscope using a series of high-resolution optical sections (1,024×1,024-pixel format) that were captured with a 25× water-immersion objective, with 1× zoom at 1-μm step intervals for Z-stacks. Laser settings for gain, digital offset and laser intensity were kept standardized between different treatments and experiments. Z-stack projections and pseudo-coloring were performed using ZEN software (Carl Zeiss Microimaging), and image post-analysis were performed using ImageJ software.
For each image, ten microns maximum projection z-stacks were reconstructed and analyzed using ImageJ. NeuN-positive neurons were determined using the ImageJ Cell Counter analysis tool. In each animal, five randomly selected fields from the cortex and the hippocampus in three nonadjacent sections (˜100 μm apart) were analyzed. Six animals per group were analyzed.

blood-brain barrier = experiment: Blood-brain barrier integrity: extravascular IgG and fibrin deposits, ZO-1 tight junction length
Method: as §1
(§2) Animals were anesthetized with an i.p. injection of 100 mg/kg of ketamine and 50 mg/kg of 10 xylazine, and transcardially perfused first with 15 ml saline, followed by 20 ml of 4% paraformaldehyde (PFA) in PBS. Brains were removed, and post-fixed overnight at 4° C. before brain sections were cut at 30 μm thickness. Sections were blocked with 5% normal donkey serum (Vector Laboratories)/0.1% Triton-X/0.01M PBS and incubated with primary antibody diluted in blocking solution overnight at 4° C. […] To visualize brain microvessels, sections were incubated with Dylight 488-conjugated L. esculentum Lectin as the Inventors have previously reported. […] Sections were imaged with a Zeiss LSM 510 confocal laser-scanning microscope using a series of high-resolution optical sections (1,024×1,024-pixel format) that were captured with a 25× water-immersion objective, with 1× zoom at 1-μm step intervals for Z-stacks. Laser settings for gain, digital offset and laser intensity were kept standardized between different treatments and experiments. Z-stack projections and pseudo-coloring were performed using ZEN software (Carl Zeiss Microimaging), and image post-analysis were performed using ImageJ software.
For each image, ten microns maximum projection z-stacks were reconstructed and analyzed using ImageJ. The levels of extravascular blood-derived fibrin and IgG deposits indicating BBB breakdown were determined as previously described.
For each image, ten microns maximum projection z-stacks were reconstructed and analyzed using ImageJ. The length of ZO-1-positive tight junctions occupying lectin-positive capillary profiles was determined using the NeuronJ plugin for ImageJ, expressed as the length of ZO-1 (mm) over the lectin-positive capillary area (mm^2) as the Inventors have previously reported. ZO-1 and lectin stainings were performed as described above. The length of ZO1-positive tight junctions was normalized to the total area of lectin-positive microvessels using the Image J Area measurement tool.

[2] = system: pericytes expressing Cre-dependent diphtheria toxin receptor
Method: as §1, §2
Tissue was incubated for 30 min in 20 μg/ml Proteinase K and the In Situ Cell Death Detection Kit (Roche) was used per the manufacturer's instructions. Sections were coverslipped as described above. For each image, ten microns maximum projection z-stacks were reconstructed and analyzed using ImageJ. […] In each animal 5 randomly selected fields from the cortex were analyzed in 3 nonadjacent sections (˜100 μm apart). Three animals per group were analyzed.
The quantitative analysis of pericyte coverage and numbers was restricted to CD13-positive cells that were associated with brain capillaries defined as microvessels ≤6 μm in diameter, as previously described. The endothelial-specific Lycopersicon esculentum lectin was used to visualize endothelial vascular profiles, and CD13 coverage of brain capillaries was determined as CD13-positive area (percentage) occupying lectin-positive endothelial capillary profiles, as previously. For each image, ten microns maximum projection z-stacks were reconstructed and analyzed using ImageJ. Pericyte numbers were determined by counting the number of CD13-positive cell bodies on the abluminal side of the endothelial membrane (lectin) that co-localized with DAPI (4′,6-diamidino-2-phenylindole)-positive nuclei and tdTomato-positive cell bodies using the Image J Cell Counter plug-in, as the Inventors and others previously described. The number of pericytes was expressed per mm^2 of tissue.

[3] = system: pericytes expressing Cre-dependent diphtheria toxin receptor; type: in vivo, mouse; settings: TAM-treated Pericyte-CreER; iDTR mice; DT 1 μg i.p. per day for 10 days; 3 days after DT; versus vehicle
[4] = TAM-treated pericyte-CreER, iDTR mice, 3 days after DT compared to vehicle
[5] = control iDTR animals treated with TAM and DT
[6] = somatosensory cortex and hippocampus, respectively, 15 days after DT compared to vehicle
[7] = cortex, TAM-treated pericyte-CreER, iDTR mice, 3 days after DT compared to vehicle

## diphtheria toxin [DT]
[1]; 10 μM acetylcholine superfused, 3 days after DT treatment or vehicle
  CBF response in the presence of acetylcholine: no difference in CBF response
[1]; 400 μM adenosine superfused, 3 days after DT treatment or vehicle
  CBF response in the presence of adenosine: no difference in CBF response
[1]; [4]
  reduction in CBF response to hind limb electrical stimulus: 50%
[1]; control iDTR animals that received TAM and DT treatment
  change in CBF responses: No significant change
Hippocampal function; TAM-treated pericyte-CreER, iDTR mice, 15 days after DT treatment
  novel object location and fear conditioning: significant behavior deficits
Hippocampal function; TAM-treated pericyte-CreER, iDTR mice, before treatment (0 d), 6 d of DT treatment, 3 days after last DT injection, versus vehicle
  novel object location and fear conditioning: did not show deficits
Hippocampal function; [5]
  novel object location and fear conditioning: no differences
neurons; before DT treatment and 3 days after last DT injection compared to vehicle
  neuronal or neuritic changes: No significant neuronal or neuritic changes
neurons; [5]
  neuron counts and neuritic density: normal neuron counts and neuritic density
neurons; [6]
  loss of NeuN-positive neuronal cell bodies: 20-25%
  reduction in SMI-312-positive neuritic density: 30-40%
blood-brain barrier; [4]
  reduction in the ZO-1 length on brain capillaries: 50%
blood-brain barrier; control iDTR animals that received TAM and DT
  BBB changes: did not show any BBB changes
blood-brain barrier; [7]
  increase in fibrin deposits: > 4 fold
  increase in plasma-derived immunoglobulin G deposits: > 4 fold
blood-brain barrier; iDTR control animals treated with TAM and DT
  ZO-1 expression: No changes
[2]; 3 days after DT treatment
  number of astrocytes, astrocytic endfeet coverage on microvessels or microglia density: no changes were observed
[2]; TAM-treated control iDTR mice, same DT injection protocol
  pericyte coverage: no changes in pericyte coverage
[2]; cortex and hippocampus, 3 days after DT treatment compared to vehicle
  loss of tdTomato-positive pericytes in brain capillaries: 95%
[2]; cortex, 3 days after DT compared to vehicle
  pericyte cell death by TUNEL staining of perivascular tdTomato-positive nuclei: contained fragmented DNA
[2]; [7]
  reduction in pericyte capillary coverage (CD13 on lectin-positive profiles): 50%
  reduction in pericyte density (CD13-positive pericyte cell bodies): 60%
[2]; hippocampus, TAM-treated pericyte-CreER, iDTR mice, 3 days after DT compared to vehicle
  reduction in pericyte density (CD13-positive pericyte cell bodies): 58%
[3]
  loss in DTR protein levels in brain capillaries: 90%
  loss of PDGFRβ protein in brain capillaries: 60%

— US10342221B2, “Generation of an inducible pericyte-specific CRE mouse model” (University of Southern California, priority 2016, dated 2019)
